In the NIST ThermoML archive (doi:10.1016/j.jct.2013.05.051):

Experiment: xn = mol fraction of the nth substance listed
Conditions: Liquid, Vibrating tube method

CCCCCCCO [heptan-1-ol] + CCCCCCC
mass density [kg/m3]
Conditions	x1 = 0.1493	x1 = 0.3215	x1 = 0.5226	x1 = 0.6698	x1 = 0.8469	x1 = 1
298.15 K, 100 kPa	699.7	723.4	751.3	772.6	804.4	818.7
298.15 K, 1000 kPa	700.6	724.2	752.1	773.3	805.1	819.3
298.15 K, 5000 kPa	704.1	727.6	755.2	776.2	807.8	821.9
298.15 K, 10000 kPa	708.4	731.6	759	779.7	811.1	824.9
298.15 K, 15000 kPa	712.4	735.4	762.6	783.2	814.2	828
298.15 K, 20000 kPa	716.2	739.1	765.9	786.3	817.2	830.8
298.15 K, 25000 kPa	719.8	742.4	769.1	789.4	820	833.5
298.15 K, 30000 kPa	723.3	745.8	772.3	792.5	822.8	836.3
298.15 K, 35000 kPa	726.5	748.9	775.3	795.3	825.4	838.8
298.15 K, 40000 kPa	729.7	751.9	778.2	798	828.1	841.3
298.15 K, 45000 kPa	732.8	754.9	781	800.7	830.6	843.8
298.15 K, 50000 kPa	735.6	757.7	783.6	803.3	833	846.2
298.15 K, 55000 kPa	738.5	760.5	786.3	805.9	835.4	848.5
298.15 K, 60000 kPa	741.2	763.2	788.8	808.3	837.7	850.8
298.15 K, 65000 kPa	743.9	765.7	791.3	810.7	839.9	853
298.15 K, 70000 kPa	746.5	768.2	793.7	813.1	842.2	855.2
298.15 K, 80000 kPa	751.4	773	798.4	817.6	846.4	859.4
298.15 K, 90000 kPa	756.2	777.7	802.8	821.9	850.6	863.5
298.15 K, 100000 kPa	760.6	782	807	826	854.5	867.3
298.15 K, 110000 kPa	764.9	786.1	811.2	830	858.4	871.1
298.15 K, 120000 kPa	768.9	790.1	815	833.8	861.9	874.6
298.15 K, 130000 kPa	772.8	793.9	818.7	837.4	865.5	878.1
298.15 K, 140000 kPa	776.5	797.6	822.3	840.9	868.9	881.5
313.15 K, 100 kPa	686.8	711	739.3	760.9	793.4	808
313.15 K, 1000 kPa	687.7	711.8	740.1	761.7	794	808.6
313.15 K, 5000 kPa	691.7	715.5	743.5	764.9	796.9	811.4
313.15 K, 10000 kPa	696.4	719.9	747.6	768.7	800.4	814.7
313.15 K, 15000 kPa	700.8	724.1	751.5	772.3	803.8	817.9
313.15 K, 20000 kPa	704.9	728	755.2	775.8	807	821
313.15 K, 25000 kPa	708.6	731.5	758.4	778.9	809.9	823.8
313.15 K, 30000 kPa	712.6	735.3	762	782.3	813	826.8
313.15 K, 35000 kPa	716.1	738.7	765.2	785.4	815.9	829.5
313.15 K, 40000 kPa	719.4	741.9	768.2	788.3	818.5	832.1
313.15 K, 45000 kPa	722.7	745	771.2	791.1	821.2	834.7
313.15 K, 50000 kPa	725.8	748	774.1	793.9	823.8	837.2
313.15 K, 55000 kPa	728.8	750.9	776.9	796.6	826.4	839.7
313.15 K, 60000 kPa	731.8	753.8	779.6	799.2	828.8	842.1
313.15 K, 65000 kPa	734.6	756.5	782.2	801.8	831.2	844.4
313.15 K, 70000 kPa	737.3	759.1	784.8	804.2	833.6	846.7
313.15 K, 80000 kPa	742.5	764.2	789.6	808.9	838	851.1
313.15 K, 90000 kPa	747.5	769	794.3	813.5	842.4	855.3
313.15 K, 100000 kPa	752.1	773.6	798.7	817.7	846.4	859.3
313.15 K, 110000 kPa	756.6	778	803	821.9	850.4	863.2
313.15 K, 120000 kPa	760.8	782.1	807	825.8	854.2	867
313.15 K, 130000 kPa	765	786.2	810.9	829.7	857.9	870.6
313.15 K, 140000 kPa	768.9	790.1	814.7	833.4	861.5	874.2
333.15 K, 100 kPa	669.3	693.9	722.8	745	778	793.3
333.15 K, 1000 kPa	670.5	694.9	723.7	745.8	778.8	794
333.15 K, 5000 kPa	675.1	699.1	727.6	749.5	782	797.1
333.15 K, 10000 kPa	680.5	704.1	732.1	753.7	785.9	800.7
333.15 K, 15000 kPa	685.6	708.9	736.5	757.8	789.7	804.3
333.15 K, 20000 kPa	690.2	713.2	740.5	761.7	793.1	807.7
333.15 K, 25000 kPa	694.5	717.3	744.4	765.3	796.5	810.8
333.15 K, 30000 kPa	698.8	721.2	748.1	768.8	799.7	813.9
333.15 K, 35000 kPa	702.7	725	751.6	772.1	802.8	816.9
333.15 K, 40000 kPa	706.4	728.5	755	775.3	805.8	819.8
333.15 K, 45000 kPa	710	731.9	758.1	778.3	808.7	822.4
333.15 K, 50000 kPa	713.5	735.2	761.3	781.4	811.5	825.2
333.15 K, 55000 kPa	716.7	738.3	764.3	784.2	814.2	827.8
333.15 K, 60000 kPa	719.9	741.3	767.2	787	816.8	830.3
333.15 K, 65000 kPa	723	744.3	770	789.8	819.4	832.9
333.15 K, 70000 kPa	726	747.2	772.8	792.4	821.9	835.3
333.15 K, 80000 kPa	731.6	752.6	778	797.4	826.7	839.9
333.15 K, 90000 kPa	737	757.8	783	802.3	831.3	844.5
333.15 K, 100000 kPa	742	762.6	787.7	806.8	835.6	848.7
333.15 K, 110000 kPa	746.8	767.3	792.2	811.2	839.8	852.8
333.15 K, 120000 kPa	751.3	771.6	796.4	815.4	843.8	856.8
333.15 K, 130000 kPa	755.6	775.8	800.6	819.4	847.7	860.5
333.15 K, 140000 kPa	759.8	–	–	–	–	–
